Measurements published in article PMC12216609, “Inhibitors of eIF1A-ribosome interaction unveil uORF-dependent regulation of translation initiation and antitumor and antiviral effects” (The EMBO Journal, 2025).
Several values for one entry are separate records, joined by “and”; a condition that tells them apart may be missing. Equal values may be shown once. Read-outs that look alike come from different tables or passages of the source.

Legend:
[1] = target: T1, eIF1A (Homo sapiens, UniProt P47813); assay type: binding; settings: for fluorescence ratio, eIF1A: background-corrected, relative to DMSO or lowest 1Ai concentration, replicate columns
T1 construct: His-bdSUMO (cleaved yes); made in house; host or cells: E. coli BL-21
T1 sequence (P47813 whole entry): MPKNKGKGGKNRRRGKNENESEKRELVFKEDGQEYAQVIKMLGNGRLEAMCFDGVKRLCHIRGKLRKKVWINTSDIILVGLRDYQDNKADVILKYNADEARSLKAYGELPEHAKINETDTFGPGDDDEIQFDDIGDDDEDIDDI

[2] = target: T2, RPS10 (Homo sapiens, UniProt P46783); assay type: binding; settings: summary table; fluorescence binding assay; read-out: IC50 concentration (µM), RPS10
T2 construct: made in house; host or cells: E. coli BL-21

[3] = test system: CUG/GUG vs AUG start codon luciferase reporters in HEK293T cells; assay: Near-cognate AUG starting codon fidelity reporter assay (GUG, CUG vs AUG); assay type: cell-based
[4] = test system: cap-proximal AUG GFP reporter in HEK293T cells; assay type: cell-based; settings: GFP WB densitometry; 20 µM overnight; dmso 0.965946;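 also: ratio of upstream to downstream AUG initiation products on GFP Western blot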
[5] = test system: IRF7 5'UTR firefly luciferase reporter in HEK293T cells; settings: 20 µM;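 also: luciferase signal corrected by a co-transfected GFP reporter for transfection efficiency, read after overnight compound exposure, with Long and Short reporters differing in 5'UTR length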

O=S(=O)(c1ccccc1)N1CCN(C2c3ccccc3-c3ccccc32)CC1 [1Ai-9025] was tested, and the “fluorescence ratio, eIF1A” value ([1]; 1Ai conc. 0.25 uM) was 0.9827 and 0.9579, the “fluorescence ratio, eIF1A” value ([1]; 1Ai conc. 0.5 uM) was 0.9655 and 0.9562 and the “fluorescence ratio, eIF1A” value ([1]; 1Ai conc. 1 uM) was 0.9303 and 0.9366. For the same compound, the “fluorescence ratio, eIF1A” value ([1]; 1Ai conc. 2 uM) was 0.9516 and 0.9059, the “fluorescence ratio, eIF1A” value ([1]; 1Ai conc. 4 uM) was 0.9297 and 0.9235 and the “fluorescence ratio, eIF1A” value ([1]; 1Ai conc. 8 uM) was 0.9058 and 0.9493. The “fluorescence ratio, eIF1A” value ([1]; 1Ai conc. 16 uM) was 0.9688 and 0.9828, the “fluorescence ratio, eIF1A” value ([1]; 1Ai conc. 32 uM) was 0.9874 and 1.077 and the “fluorescence ratio, eIF1A” value ([1]; 1Ai conc. 64 uM) was 1.153 and 1.164. For the same compound, the “fluorescence ratio, eIF1A” value ([1]; 1Ai conc. 256 uM) was 1.25 and 1.3257, the “WT eIF1A IC50” value ([1]; fluorescence binding) was “No binding” and the “IC50 concentration (µM), WT eIF1A” value ([1]; summary table, fluorescence binding assay) was “No binding”. For the same compound, the IC50 [2] was 4.8 µM, the “average CUG and GUG” value ([3]; NUG experiment) was 4.366 and the “average CUG and GUG relative to DMSO” value ([3]; NUG experiment) was 0.9681. For the same compound, the “CUG Average” value ([3]; NUG experiment, CUG vs AUG reporter) was 6.84, the “GUG Average” value ([3]; NUG experiment, GUG vs AUG reporter) was 1.892 and the “NUG (Final data, Fig. 1E)” value ([3]; average CUG and GUG relative to DMSO, 20 µM overnight) was 0.968. For the same compound, the “GUG vs AUG data (%)” value ([3]; compound at 20uM, individual repeat) was 2.56% and 1.57% and 2.32% and 1.11%, the “GUG vs AUG (%) Average” value ([3]; compound at 20uM, summary average of repeats, DMSO control average […]) was 1.89% and the “US/DS ratio, average” value [4] was 0.7517. For the same compound, the “Reference vs IRF7 (Final data, Fig. 1E)” value ([5]; 1/Result, relative to DMSO) was 1.762, the “LONG (summary - All), normalized to DMSO” value ([5]; Long reporter, individual replicates, outliers excluded, DMSO = 1) was 0.59 and 0.94 and 0.66 and 0.50 and the “SHORT (summary - All), normalized to DMSO” value ([5]; Short reporter, individual replicates, outliers excluded, DMSO = 1) was 1.30 and 0.73 and 1.51. For the same compound, the “Long: Normalized to average DMSO” value ([5]; data section, Long reporter, GFP-corrected, per experiment, includes values excluded as outliers) was 0.5873 and 0.9413 and 0.6597 and 0.4965 and the “average ( long vs short ratio)” value ([5]; summary - All) was 0.568.
